From patent publication US8415285B2, “Composition for the prevention or removal of insoluble salt deposits” (Ecover Coordination Center N.V., priority 2010, dated 2013)
Read-outs that look alike come from different tables or passages of the source. Each block holds one molecule with its values, some of them ahead of it.

Experiments:
[1] = Descaling efficiency upon short exposure, weight loss of marble plates (IKW protocol); conditions: for Average weight loss (g), plates: Example 1, 5% active matter acid solution, 10 seconds immersion + 10 minutes, five plates; for Weight loss plates: Example 4, acid levels 0, 1.5 or 3, solutions prepared 20 hours prior; for Weight difference plates: Example 3, short contact
Description: SÖFW-journal, 120, Jahrgang 13:94) for their descaling efficiency upon short exposure.
For each product, five oven-dry marble plates (Carrara marble, 75×150×5 mm, bought at Van Houten Malle) are weighted on a high precision balance and subsequently completely immersed during 10 seconds in a glass beaker holding 950 milliliter of a 5% active matter acid solution. The plates are then removed from the liquor, and put in upright position for 10 minutes during which the acid is allowed for further action. […] The weight loss due to the exposure to the acid is used as a measure for its descaling performance.
(§1) Solutions were allowed to stand until complete dissolution of the lactide before the descaling test was started.
(§2) The required volumes for filling the beakers were prepared as 3% active matter solutions, 20 hours prior to the test.

[2] = Descaling efficiency upon prolonged contact, weight loss of immersed marble blocks (IPP protocol); conditions: for Average weight loss (g), blocks: Example 2, 24 hours immersion in the acid solution, duplicate; for Weight loss blocks: Example 4, acid levels 0, 1.5 or 3
Description: as §1, §2

[3] = labeling according to EU legislation; cited from earlier work
[4] = cited from earlier work
[5] = cited from earlier work; remark: listed apart in the source
[6] = Descaling efficiency upon prolonged contact, weight loss of immersed marble blocks (IPP protocol); conditions: Example 3, 5% solution
[7] = footnote b: as % anhydrous at 25° C.; cited from earlier work
[8] = Dissolution and pH development of lactide in water; type: physicochemical
Description: Slow-release lactide is commercially available from the company Galactic, Belgium.

SMILES: CC(O)C(=O)O (stereo not drawn) [Lactic acid]
- Average weight loss (g), plates [1]: 0.1278 g
- Weight loss plates [1]: 0.09616 g
- Average weight loss (g), blocks [2]: 9.06 g
- Weight loss blocks ([2]; prolonged contact): 5.2176 g
- label [3]: Xi

SMILES: O=C(O)CCCC(=O)O [glutaric]
- Solubility water 20° C. ([4]; pH 7, 20° C.): 50%
- label [3]: Xi

SMILES: O=C(O)CO [Glycolic acid]
- Average weight loss (g), plates [1]: 0.1629 g
- Weight loss plates [1]: 0.1115 g
- Average weight loss (g), blocks [2]: 2.629 g
- Weight loss blocks ([2]; prolonged contact): 4.2873 g
- label [3]: C, Xn

SMILES: O=C(O)CC(=O)O [malonic]
- label [3]: Xn

SMILES: NS(=O)(=O)O [sulfamic]
- pKa (first value) [5]: 0.1
- label [3]: C, Xn, N

SMILES: O=C(O)/C=C/C(=O)O [fumaric]
- Solubility water 20° C. ([4]; pH 7): 64%

SMILES: O=C(O)/C=C\C(=O)O [maleic]
- Solubility water 20° C. ([4]; pH 7): >40%

SMILES: CC(=O)O [Acetic]
- label [3]: C, Xn

SMILES: O=S(=O)(O)O [sulfuric]
- label [3]: C, T

SMILES: O=C(O)CCC(=O)O [Succinic acid]
- Average weight loss (g), plates [1]: 0.1376 g
- Weight difference plates ([1]; 5% solution): 0.0899 g
- Weight loss plates [1]: 0.08734 g
- Weight difference blocks [6]: 7.2479 g
- Average weight loss (g), blocks [2]: 9.304 g
- Weight loss blocks ([2]; prolonged contact): 4.705 g
- label [3]: C, Xn

SMILES: O=C(O)CC(O)C(=O)O (stereo not drawn) [Malic acid]
- Average weight loss (g), plates [1]: 0.1457 g
- Solubility water 20° C. ([4]; pH 7, 20° C.): >80%
- Average weight loss (g), blocks [2]: 8.735 g
- Solubility calcium salt as % anhydrous at 25° C. [7]: 0.8%^b
- label [3]: Xn

SMILES: O=C(O)[C@H](O)[C@@H](O)[C@H](O)[C@H](O)CO [gluconic]
- Solubility water 20° C. ([4]; pH 7): >50%
- label [3]: Xn

- Time for complete dissolution ([8]; room temperature, while stirring): at least 3 hours
SMILES: CC1OC(=O)C(C)OC1=O (stereo not drawn) [Lactide, 3,6-Dimethyl-1,4-dioxane-2,5-dione]
- Weight difference plates ([1]; 3% solution): 0.1129 g
- Weight difference plates ([1]; 5% solution): 0.1365 g
- Weight difference blocks [6]: 6.0445 g
- Solubility water 20° C. ([4]; pH 7, 20° C.): Insol.^a
- Weight difference blocks ([2]; Example 3, 3% solution, prolonged contact): 2.9844 g
- label [3]: Xi

SMILES: O=C(O)C(=O)O [oxalic]
- label [3]: C, Xn

SMILES: O=C(O)CC(O)(CC(=O)O)C(=O)O [Citric acid]
- Average weight loss (g), plates [1]: 0.105 g
- Weight difference plates ([1]; 5% solution): 0.0782 g
- Weight loss plates [1]: 0.05778 g
- Weight difference blocks [6]: 3.3186 g
- Average weight loss (g), blocks [2]: 3.8461 g
- Weight loss blocks ([2]; prolonged contact): 2.2648 g

SMILES: O=CO [formic]
- label [3]: C, Xn

- pH of 0.1 w/v % solution after 5 minutes ([8]; demineralized water, 25° C., 5 minutes): 3.7
- pH of 0.1 w/v % solution after 10 minutes ([8]; demineralized water, 25° C., 10 minutes): 3.2
- pH of 0.1 w/v % solution after 120 minutes ([8]; demineralized water, 25° C., 120 minutes): 2.5
SMILES: CC1OC(=O)C(C)OC1=O (stereo not drawn) [slow-release lactide]
